The experiment has as its target T1, AsPC-1 HiBiT-KRASG12D (Homo sapiens, UniProt P01116, G12D).
T1 construct: insert the HiBiT tag onto the N-terminus of one or more of the endogenous KRAS alleles; endogenous in cells; host or cells: AsPC-1 (ATCC CRL-1682), CRISPR-Cas9 knock-in clone, one tagged allele
The experiment can be described thus: HiBiT degradation assay (G12D), AsPC-1 HiBiT-KRASG12D cells. The class given is cell-based. Conditions: 24 hours treatment; for Dmax: ASPC1, AsPC-1 HiBiT-KRASG12D cells, maximum degradation observed; for DC50: AsPC-1 HiBiT-KRASG12D cells, HiBiT luminescence. The essentials: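 Endogenous KRASG12D levels were measured via an N-terminal HiBiT tag knocked into AsPC-1 cells. Cells received compound titrations for 24 hours, and HiBiT luminescence was detected after a 45-minute lytic reagent incubation at room temperature.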
(HiBiT is a short tag that completes a luciferase, so light tracks the accessible tagged protein.)

By Dmax is commonly meant the greatest extent of degradation seen. For orientation: DC50 means the midpoint of the concentration-degradation curve. Read a low DC50 as degradation at low concentration.

T1 sequence (P01116 1-188 isoform P01116-2 G12D): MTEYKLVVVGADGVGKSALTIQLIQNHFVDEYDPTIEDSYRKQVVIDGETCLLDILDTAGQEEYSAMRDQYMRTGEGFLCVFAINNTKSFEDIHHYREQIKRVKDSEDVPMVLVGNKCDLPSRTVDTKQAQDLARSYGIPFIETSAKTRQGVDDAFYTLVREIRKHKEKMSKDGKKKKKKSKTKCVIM

In turn, `C#Cc1c(F)ccc2cccc(-c3ncc4c(N5CC6CCC(C5)N6)nc(OC[C@]56CCCN5[C@H](COC(=O)N5CCN(c7cc([C@H](C(=O)N8C[C@H](O)C[C@H]8C(=O)N[C@@H](C)c8ccc(-c9scnc9C)cc8)C(C)C)on7)CC5)CC6)nc4c3F)c12` [Compound 53, [(3S,7aR)-7a-{[(4-{3,8-diazabicyclo[3.2.1]octan-3-yl}-7-(8-ethynyl-7-fluoronaphthalen-1-yl)-8-fluoropyrido[4,3-d]pyrimidin-2-yl)oxy]methyl}-hexahydro-1H-pyrrolizin-3-yl]methyl 4-{5-[(2R)-1-[(2S,4R)-4-hydroxy-2-{[(1S)-1-[4-(4-methyl-1,3-thiazol-5-yl)phenyl]ethyl]carbamoyl}pyrrolidin-1-yl]-3-methyl-1-oxobutan-2-yl]-1,2-oxazol-3-yl}piperazine-1-carboxylate] registered a Dmax of 80 to 100% and a DC50 below 0.6 µM.

As for `CCc1cccc2cccc(-c3ncc4c(N5CC6CCC(C5)N6)nc(OC[C@@]56CCCN5[C@H](COc5cc([C@H](C(=O)N7C[C@H](O)C[C@H]7C(=O)N[C@@H](C)c7ccc(-c8scnc8C)cc7)C(C)C)on5)CC6)nc4c3F)c12` [Compound 54, (2S,4R)-1-[(2R)-2-(3-{[(3S,7aS)-7a-{[(4-{3,8-diazabicyclo[3.2.1]octan-3-yl}-7-(8-ethylnaphthalen-1-yl)-8-fluoropyrido[4,3-d]pyrimidin-2-yl)oxy]methyl}-hexahydro-1H-pyrrolizin-3-yl]methoxy}-1,2-oxazol-5-yl)-3-methylbutanoyl]-4-hydroxy-N-[(1S)-1-[4-(4-methyl-1,3-thiazol-5-yl)phenyl]ethyl]pyrrolidine-2-carboxamide], the Dmax was 80 to 100% and the DC50 was below 0.6 µM.

Molecule `CCc1cccc2cccc(-c3ncc4c(N5CC6CCC(C5)N6)nc(OC[C@@]56CCCN5[C@H](COc5cc([C@@H](C(=O)N7C[C@H](O)C[C@H]7C(=O)N[C@@H](C)c7ccc(-c8scnc8C)cc7)C(C)C)on5)CC6)nc4c3F)c12` [Compound 55, (2S,4R)-1-[(2S)-2-(3-{[(3S,7aS)-7a-{[(4-{3,8-diazabicyclo[3.2.1]octan-3-yl}-7-(8-ethylnaphthalen-1-yl)-8-fluoropyrido[4,3-d]pyrimidin-2-yl)oxy]methyl}-hexahydro-1H-pyrrolizin-3-yl]methoxy}-1,2-oxazol-5-yl)-3-methylbutanoyl]-4-hydroxy-N-[(1S)-1-[4-(4-methyl-1,3-thiazol-5-yl)phenyl]ethyl]pyrrolidine-2-carboxamide] displayed a DC50 above 3 µM.

Molecule `C#Cc1c(F)ccc2cc(O)cc(-c3ncc4c(N5CC6CCC(C5)N6)nc(OC[C@]56CCCN5[C@H](COC(=O)N5CCN(c7cc([C@H](C(=O)N8C[C@H](O)C[C@H]8C(=O)N[C@@H](C)c8ccc(-c9scnc9C)cc8)C(C)C)on7)CC5)CC6)nc4c3F)c12` [Compound 56, [(3S,7aR)-7a-{[(4-{3,8-diazabicyclo[3.2.1]octan-3-yl}-7-(8-ethynyl-7-fluoro-3-hydroxynaphthalen-1-yl)-8-fluoropyrido[4,3-d]pyrimidin-2-yl)oxy]methyl}-hexahydro-1H-pyrrolizin-3-yl]methyl 4-{5-[(2R)-1-[(2S,4R)-4-hydroxy-2-{[(1S)-1-[4-(4-methyl-1,3-thiazol-5-yl)phenyl]ethyl]carbamoyl}pyrrolidin-1-yl]-3-methyl-1-oxobutan-2-yl]-1,2-oxazol-3-yl}piperazine-1-carboxylate] returned a maximal degradation (Dmax) of 80 to 100% and a DC50 below 0.6 µM.

`CCc1cccc2cccc(-c3ncc4c(N5CC6CCC(C5)N6)nc(OC[C@]56CCCN5[C@H](COC(=O)N5CCN(c7cc([C@H](C(=O)N8C[C@H](O)C[C@H]8C(=O)N[C@@H](C)c8ccc(-c9scnc9C)cc8)C(C)C)on7)CC5)CC6)nc4c3F)c12` [Compound 57] registered a Dmax of 60 to 80% and a DC50 below 0.6 µM.

Consider `C#Cc1c(F)ccc2cc(O)cc(-c3ncc4c(N5CC6CCC(C5)N6)nc(OC[C@@]56CCCN5[C@H](COC(=O)N5CCN(c7cc([C@H](C(=O)N8C[C@H](O)C[C@H]8C(=O)N[C@@H](C)c8ccc(-c9scnc9C)cc8)C(C)C)on7)CC5)CC6)nc4c3F)c12` [Compound 58, [(3S,7aS)-7a-{[(4-{3,8-diazabicyclo[3.2.1]octan-3-yl}-7-(8-ethynyl-7-fluoro-3-hydroxynaphthalen-1-yl)-8-fluoropyrido[4,3-d]pyrimidin-2-yl)oxy]methyl}-hexahydro-1H-pyrrolizin-3-yl]methyl 4-{5-[(2R)-1-[(2S,4R)-4-hydroxy-2-{[(1S)-1-[4-(4-methyl-1,3-thiazol-5-yl)phenyl]ethyl]carbamoyl}pyrrolidin-1-yl]-3-methyl-1-oxobutan-2-yl]-1,2-oxazol-3-yl}piperazine-1-carboxylate], for which the maximal degradation (Dmax) lay in the range of 80 to 100% and the 50% degradation concentration (DC50) is below 0.6 µM.

Molecule `C#Cc1c(F)ccc2cc(O)cc(-c3ncc4c(N5CC6CCC(C5)N6)nc(OC[C@@H]5CC[C@@H](COC(=O)N6CCN(c7cc([C@H](C(=O)N8C[C@H](O)C[C@H]8C(=O)N[C@@H](C)c8ccc(-c9scnc9C)cc8)C(C)C)on7)CC6)N5C)nc4c3F)c12` [Compound 59, [(2S,5S)-5-{[(4-{3,8-diazabicyclo[3.2.1]octan-3-yl}-7-(8-ethynyl-7-fluoro-3-hydroxynaphthalen-1-yl)-8-fluoropyrido[4,3-d]pyrimidin-2-yl)oxy]methyl}-1-methylpyrrolidin-2-yl]methyl 4-{5-[(2R)-1-[(2S,4R)-4-hydroxy-2-{[(1S)-1-[4-(4-methyl-1,3-thiazol-5-yl)phenyl]ethyl]carbamoyl}pyrrolidin-1-yl]-3-methyl-1-oxobutan-2-yl]-1,2-oxazol-3-yl}piperazine-1-carboxylate] displayed a Dmax of 80 to 100% and a 50% degradation concentration (DC50) below 0.6 µM.

`Cc1ncsc1-c1ccc([C@H](C)NC(=O)[C@@H]2C[C@@H](O)CN2C(=O)[C@@H](c2cc(OCC3CCN(CCOc4nc(N5CC6CCC(C5)N6)c5cnc(-c6cc(O)cc7cccc(C)c67)c(F)c5n4)CC3)no2)C(C)C)cc1` [Compound 60, (2S,4R)-1-[(2R)-2-{3-[(1-{2-[(4-{3,8-diazabicyclo[3.2.1]octan-3-yl}-8-fluoro-7-(3-hydroxy-8-methylnaphthalen-1-yl)pyrido[4,3-d]pyrimidin-2-yl)oxy]ethyl}piperidin-4-yl)methoxy]-1,2-oxazol-5-yl}-3-methylbutanoyl]-4-hydroxy-N-[(1S)-1-[4-(4-methyl-1,3-thiazol-5-yl)phenyl]ethyl]pyrrolidine-2-carboxamide]: the Dmax lay within 60 to 80% and the 50% degradation concentration (DC50) was below 0.6 µM.

As to `Cc1ncsc1-c1ccc([C@H](C)NC(=O)[C@@H]2C[C@@H](O)CN2C(=O)[C@@H](c2cc(OC[C@@H]3CC[C@]4(COc5nc(N6CC7CCC(C6)N7)c6cnc(-c7cccc8ccc(F)c(F)c78)c(F)c6n5)CCCN34)no2)C(C)C)cc1` [Compound 61, (2S,4R)-1-[(2R)-2-(3-{[(3S,7aS)-7a-{[(4-{3,8-diazabicyclo[3.2.1]octan-3-yl}-7-(7,8-difluoronaphthalen-1-yl)-8-fluoropyrido[4,3-d]pyrimidin-2-yl)oxy]methyl}-hexahydro-1H-pyrrolizin-3-yl]methoxy}-1,2-oxazol-5-yl)-3-methylbutanoyl]-4-hydroxy-N-[(1S)-1-[4-(4-methyl-1,3-thiazol-5-yl)phenyl]ethyl]pyrrolidine-2-carboxamide], the Dmax lay in the range of 80 to 100% and the DC50 was below 0.6 µM.

`Cc1ncsc1-c1ccc([C@H](C)NC(=O)[C@@H]2C[C@@H](O)CN2C(=O)[C@H](c2cc(OC[C@@H]3CC[C@]4(COc5nc(N6CC7CCC(C6)N7)c6cnc(-c7cccc8ccc(F)c(F)c78)c(F)c6n5)CCCN34)no2)C(C)C)cc1` [Compound 62, (2S,4R)-1-[(2S)-2-(3-{[(3S,7aS)-7a-{[(4-{3,8-diazabicyclo[3.2.1]octan-3-yl}-7-(7,8-difluoronaphthalen-1-yl)-8-fluoropyrido[4,3-d]pyrimidin-2-yl)oxy]methyl}-hexahydro-1H-pyrrolizin-3-yl]methoxy}-1,2-oxazol-5-yl)-3-methylbutanoyl]-4-hydroxy-N-[(1S)-1-[4-(4-methyl-1,3-thiazol-5-yl)phenyl]ethyl]pyrrolidine-2-carboxamide] registered a half-maximal degradation concentration (DC50) above 3 µM.

In the case of `Cc1ncsc1-c1ccc([C@H](C)NC(=O)[C@@H]2C[C@@H](O)CN2C(=O)[C@@H](c2cc(OC[C@@H]3CC[C@]4(COc5nc(N6CC7CCC(C6)N7)c6cnc(-c7cc(O)cc(Cl)c7C7CC7)c(F)c6n5)CCCN34)no2)C(C)C)cc1` [Compound 64, (2S,4R)-1-[(2R)-2-(3-{[(3S,7aS)-7a-({[7-(3-chloro-2-cyclopropyl-5-hydroxyphenyl)-4-{3,8-diazabicyclo[3.2.1]octan-3-yl}-8-fluoropyrido[4,3-d]pyrimidin-2-yl]oxy}methyl)-hexahydro-1H-pyrrolizin-3-yl]methoxy}-1,2-oxazol-5-yl)-3-methylbutanoyl]-4-hydroxy-N-[(1S)-1-[4-(4-methyl-1,3-thiazol-5-yl)phenyl]ethyl]pyrrolidine-2-carboxamide], the Dmax was in the range of 20 to 60% and the DC50 was below 0.6 µM.

`Cc1ncsc1-c1ccc([C@H](C)NC(=O)[C@@H]2C[C@@H](O)CN2C(=O)[C@H](c2cc(OC[C@@H]3CC[C@]4(COc5nc(N6CC7CCC(C6)N7)c6cnc(-c7cc(O)cc(Cl)c7C7CC7)c(F)c6n5)CCCN34)no2)C(C)C)cc1` [Compound 65, (2S,4R)-1-[(2S)-2-(3-{[(3S,7aS)-7a-({[7-(3-chloro-2-cyclopropyl-5-hydroxyphenyl)-4-{3,8-diazabicyclo[3.2.1]octan-3-yl}-8-fluoropyrido[4,3-d]pyrimidin-2-yl]oxy}methyl)-hexahydro-1H-pyrrolizin-3-yl]methoxy}-1,2-oxazol-5-yl)-3-methylbutanoyl]-4-hydroxy-N-[(1S)-1-[4-(4-methyl-1,3-thiazol-5-yl)phenyl]ethyl]pyrrolidine-2-carboxamide] gave a maximal degradation (Dmax) below 20% and a DC50 of 1 to 3 µM.
